Here are results for 14 compounds from US20240207292A1, “BORONIC ACID COMPOUNDS, COMPOSITIONS AND METHODS” (Trustees of Tufts College, priority 2021, published 2024).

In one data set the target is recombinant human FAP (Homo sapiens (Human), UniProt Q12884). Put plainly: In vitro enzyme IC50 assay, FAP (Example 16). The settings on record: 10 min preincubation at 25° C.; Z-Gly-Pro-AMC. It counts as biochemical. The method, then: Biological Materials: For the in vitro IC50 determination assays, recombinant human DPPIV, DPP9, FAP, and PREP were purchased from R&D Systems, and DPP8 was from Biomol International. Buffer systems used were A (25 mM Tris, pH 8.0), B (50 mM Tris, pH 7.5), C (50 mM Tris, 140 mM NaCl, pH 7.5), D (25 mM Tris, 250 mM NaCl, pH 7.5), and E (20 mM Tris, 20 mM KCl, pH 7.4). […] Substrate Specificity Assay. Peptide libraries (0.21 mM) were incubated for 24 h with 1 nM FAP in buffer E at 37° C. The reaction was quenched by the addition of 1.2 N HCl. The samples were analyzed by reverse-phase HPLC-MS on a Thermo Finnigan LCQ Duo, quantifying the peaks in the resulting base peak chromatograms. Relative cleavage values were determined by comparing the postquench abundance of intact peptides to those in the initial library.
Chain of recombinant human FAP (Q12884 whole entry): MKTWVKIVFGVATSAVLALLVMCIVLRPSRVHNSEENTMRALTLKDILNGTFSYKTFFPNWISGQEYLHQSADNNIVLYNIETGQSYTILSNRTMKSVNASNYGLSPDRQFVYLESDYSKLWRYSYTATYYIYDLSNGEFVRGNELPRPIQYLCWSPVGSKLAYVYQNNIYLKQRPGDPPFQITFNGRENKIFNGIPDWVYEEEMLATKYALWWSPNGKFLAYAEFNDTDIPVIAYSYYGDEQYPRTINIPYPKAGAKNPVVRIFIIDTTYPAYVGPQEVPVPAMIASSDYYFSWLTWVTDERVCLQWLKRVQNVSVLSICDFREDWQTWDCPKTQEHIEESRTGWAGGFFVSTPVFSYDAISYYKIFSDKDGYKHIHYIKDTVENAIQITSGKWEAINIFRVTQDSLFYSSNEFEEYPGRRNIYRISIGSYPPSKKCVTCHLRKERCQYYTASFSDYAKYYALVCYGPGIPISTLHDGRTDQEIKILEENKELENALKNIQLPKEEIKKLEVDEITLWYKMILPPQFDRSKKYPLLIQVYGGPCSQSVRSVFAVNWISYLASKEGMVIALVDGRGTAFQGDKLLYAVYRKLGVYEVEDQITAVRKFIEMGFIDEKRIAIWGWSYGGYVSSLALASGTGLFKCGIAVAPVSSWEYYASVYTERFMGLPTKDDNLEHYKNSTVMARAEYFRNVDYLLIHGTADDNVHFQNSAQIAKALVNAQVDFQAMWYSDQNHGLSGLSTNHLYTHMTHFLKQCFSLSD
In Vitro Enzyme IC50 Assays. Enzymatic activity of DPPIV, DPP8, DPP9, FAP, and PREP was measured at 25° C. on a Molecular Devices M2e multidetection microtiter plate reader, monitoring the fluorescence at an excitation wavelength of 380 nm and an emission wavelength of 460 nm. The substrate was either H-Gly-Pro-AMC for the DPPIV, DPP8, and DPP9 assays or Z-Gly-Pro-AMC for the FAP and PREP assays. […] The final enzyme concentrations were 0.1, 0.8, 0.4, 1.2, and 0.6 nM for DPPIV, DPP8, DPP9, FAP, and PREP, respectively. […] Those prepared in pH 2.0 solution were preincubated at 25° C. for 4 h prior to dilution. Immediately prior to the commencement of the experiment, the 100 mM stocks were further diluted to 10^-3 M in the appropriate assay buffer, from which 1:10 serial dilutions were prepared. All inhibitors were tested in triplicate.

In data set [1] the target is recombinant human fibroblast activation protein (FAP) (Homo sapiens (Human), UniProt Q12884). As to the kind of experiment: In vitro assay fibroblast activation protein IC50 (Example 21). It is filed as biochemical. The procedure:
(§1) The purpose of this assay is to determine the IC50 of various inhibitors against recombinant human dipeptidyl peptidase IV (DPPIV), fibroblast activation protein (FAP) or prolyl oligopeptidase (PREP).
(§2) The assays are conducted in the following steps: • 1 Dissolve the compound in DMSO to a final concentration of 100 mM. From this, prepare a 1 mM stock at pH 7.5 in 50 mM Tris, 140 mM NaCl Buffer (FAP)/pH 7.5 in 25 mM Tris, 250 mM NaCl Buffer/[…]. • 2. Serial dilute (1:10) the 1 mM compound stocks prepared previously into the appropriate assay buffer (FAP: 50 mM Tris, 140 mM NaCl, pH 7.5/PREP: 25 mM Tris, 0.25 M NaCl, pH 7.5/DPPIV: 25 mM Tris, pH 8.0) to one row of a 96-well plate. • 3. […] Dilute the enzymes into their appropriate assay buffers. The final enzyme concentrations should be 0.1, 1.2, and 0.6 nM for DPPIV, FAP and PREP respectively. Add 180 μL to each well needed in columns 2-10. Column 1(A,B,C) should be prepared with 200 μl of appropriate assay buffer as control. Column 1(D,E,F,G,H) should be prepared with 20 μl of appropriate assay buffer and 180 ul enzyme as no inhibitor control. • 5. Add 20 μL of the compound of interest from the dilution plate prepared in step 2 to columns 2-10 of the assay plate where appropriate. Each sample should be tested in triplicate. Allow this to incubate for 10 minutes at room temperature, shaking the plate for the first two minutes. • 6. Add 10 μL of 20× substrate prepared in step 3 to each well and allow this to incubate for 15 minutes at room temperature, shaking the plate for the first two minutes. • 7. Read the fluorescence at λex: 380, λem: 460. (DPcore=[dAla|dSer|Gly]-[boroPro|Pro-nitrile], XXaa=alpha-amino acid)

Data set [2] has as its target recombinant human prolyl oligopeptidase (PREP) (Homo sapiens (Human), UniProt P48147). Put plainly: In vitro assay prolyl oligopeptidase IC50 (Example 21). It is filed as biochemical. The method, then:
as §1, §2

In data set [3] the target is recombinant human dipeptidyl peptidase IV (DPPIV) (Homo sapiens (Human), UniProt P27487). As to the kind of experiment: In vitro assay dipeptidyl peptidase IV IC50 (Example 21). It counts as biochemical. The method, then: as §1, §2
Chain of recombinant human dipeptidyl peptidase IV (DPPIV) (P27487 whole entry): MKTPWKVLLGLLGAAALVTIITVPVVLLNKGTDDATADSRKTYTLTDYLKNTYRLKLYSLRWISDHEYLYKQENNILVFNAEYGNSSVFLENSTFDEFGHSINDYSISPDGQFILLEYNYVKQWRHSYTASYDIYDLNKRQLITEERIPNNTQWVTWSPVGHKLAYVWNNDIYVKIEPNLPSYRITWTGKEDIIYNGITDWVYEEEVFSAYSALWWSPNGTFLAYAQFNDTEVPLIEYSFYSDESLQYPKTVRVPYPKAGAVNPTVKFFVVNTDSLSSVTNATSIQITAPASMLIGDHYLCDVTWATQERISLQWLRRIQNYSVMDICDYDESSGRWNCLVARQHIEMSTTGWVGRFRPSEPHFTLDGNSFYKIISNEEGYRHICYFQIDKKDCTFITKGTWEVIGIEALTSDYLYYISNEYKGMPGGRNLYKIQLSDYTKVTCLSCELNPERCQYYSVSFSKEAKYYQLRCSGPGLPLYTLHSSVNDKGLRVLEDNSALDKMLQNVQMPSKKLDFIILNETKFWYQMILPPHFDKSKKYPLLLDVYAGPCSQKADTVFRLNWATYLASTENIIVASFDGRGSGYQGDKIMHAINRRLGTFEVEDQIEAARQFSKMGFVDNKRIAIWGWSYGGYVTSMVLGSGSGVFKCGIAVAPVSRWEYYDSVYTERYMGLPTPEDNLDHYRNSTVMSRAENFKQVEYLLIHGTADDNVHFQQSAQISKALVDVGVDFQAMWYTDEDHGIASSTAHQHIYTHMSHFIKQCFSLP
The nature of data set [4]: Degradation in aqueous solution of pH about 3 during HPLC purification and lyophilization. The settings on record: during HPLC purification and subsequent lyophilization.

Like-named read-outs stand apart in the source and are kept apart here.

Chain of recombinant human fibroblast activation protein (FAP) (Q12884 whole entry): as the sequence (Q12884 whole entry) above
Chain of recombinant human prolyl oligopeptidase (PREP) (P48147 whole entry): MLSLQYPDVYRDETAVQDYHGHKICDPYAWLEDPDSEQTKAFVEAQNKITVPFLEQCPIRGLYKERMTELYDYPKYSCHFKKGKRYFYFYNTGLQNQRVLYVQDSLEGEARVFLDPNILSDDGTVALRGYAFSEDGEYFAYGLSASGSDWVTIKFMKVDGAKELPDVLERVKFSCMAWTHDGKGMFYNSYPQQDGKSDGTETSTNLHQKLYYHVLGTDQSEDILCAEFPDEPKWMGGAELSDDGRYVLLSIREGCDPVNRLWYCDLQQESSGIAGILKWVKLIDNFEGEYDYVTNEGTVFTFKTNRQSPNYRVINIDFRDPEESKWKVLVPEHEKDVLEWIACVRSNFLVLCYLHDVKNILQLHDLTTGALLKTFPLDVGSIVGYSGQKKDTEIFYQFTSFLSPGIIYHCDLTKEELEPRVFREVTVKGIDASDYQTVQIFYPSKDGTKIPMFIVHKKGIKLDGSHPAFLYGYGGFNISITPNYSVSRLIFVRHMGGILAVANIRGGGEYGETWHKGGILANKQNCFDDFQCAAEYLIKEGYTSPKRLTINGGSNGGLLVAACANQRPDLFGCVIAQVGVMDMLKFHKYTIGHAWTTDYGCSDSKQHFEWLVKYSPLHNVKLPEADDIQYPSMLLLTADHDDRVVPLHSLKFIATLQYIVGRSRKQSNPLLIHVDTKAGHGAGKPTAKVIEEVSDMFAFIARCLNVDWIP

Consider `C[C@@H](NC(=O)c1ccc(NNC(=O)CN2CCN(CC(=O)O)CCN(CC(=O)O)CCN(CC(=O)O)CC2)cc1)C(=O)N1CCC[C@H]1B(O)O` [4536B, DOTA-HyBz-D-Ala-boroPro], for which the IC50 (usually the concentration that inhibits the measured activity by half) at recombinant human FAP was 2.7 nM. In the case of `C[C@@H](NC(=O)c1ccc(NNC(=O)CCCCCNC(=O)CN2CCN(CC(=O)O)CCN(CC(=O)O)CCN(CC(=O)O)CC2)cc1)C(=O)N1CCC[C@H]1B(O)O` [6486S, DOTA-EACA-HyBz-D-Ala-boroPro], the IC50 on recombinant human FAP was determined as 1.7 nM. `C[C@@H](NC(=O)c1ccc(NNC(=O)CNC(=O)CN2CCN(CC(=O)O)CCN(CC(=O)O)CCN(CC(=O)O)CC2)cc1)C(=O)N1CCC[C@H]1B(O)O` [6487S, DOTA-Gly-HyBz-D-Ala-boroPro]: at recombinant human FAP, the IC50 came to 2.1 nM. For the compound `C[C@@H](NC(=O)c1ccc(NNC(=O)CCNC(=O)CN2CCN(CC(=O)O)CCN(CC(=O)O)CCN(CC(=O)O)CC2)cc1)C(=O)N1CCC[C@H]1B(O)O` [6488S, DOTA-betaAla-HyBz-D-Ala-boroPro], the IC50 (at recombinant human FAP; in data set [1]) was 8.8 nM throughout. As for `C[C@@H](NC(=O)c1ccc(NNC(=O)CCCNC(=O)CN2CCN(CC(=O)O)CCN(CC(=O)O)CCN(CC(=O)O)CC2)cc1)C(=O)N1CCC[C@H]1B(O)O` [6489S, DOTA-GABA-HyBz-D-Ala-boroPro], the IC50 at recombinant human FAP came to 0.8 nM.

`C[C@@H](NC(=O)c1ccc(CNC(=O)CN2CCN3CCN4CCN(CC2)CC(=O)[O][Ga]([O]C(=O)C3)[O]C(=O)C4)cc1)C(=O)N1CCC[C@H]1B(O)O` [6555GA]: the IC50 in data set [1] is 55 nM; in data set [2] it was 3600 nM; in data set [3], above 100000 nM. Also, the “degradation in aqueous solution” value in data set [4] is on record as “did not observe any sign of degradation”. On to `C[C@@H](NC(=O)c1ccc(NC(=O)CN2CCN3CCN(CC(=O)O)CCN(CC2)CC(=O)[O][Cu][O]C(=O)C3)cc1)C(=O)N1CCC[C@H]1B(O)O` [6572CU, DOTA[Cu(II)]-PABA-D-Ala-boroPro], for which the IC50 on recombinant human FAP is 12.6 nM.

As to `C[C@@H](NC(=O)c1ccc(NNC(=O)CN2CCN3CCN(CC(=O)O)CCN(CC2)CC(=O)[O][Cu][O]C(=O)C3)cc1)C(=O)N1CCC[C@H]1B(O)O` [compound 6481, DOTA[Cu(II)]-HyBz-D-Ala-boroPro], at recombinant human FAP, the IC50 was 10.3 nM. With `C[C@@H](NC(=O)c1ccc(NNC(=O)CCNC(=O)CN2CCN3CCN(CC(=O)O)CCN(CC2)CC(=O)[O][Cu][O]C(=O)C3)cc1)C(=O)N1CCC[C@H]1B(O)O` [compound 6488, DOTA[Cu]-betaAla-HyBz-D-Ala-boroPro], the IC50 (on recombinant human FAP; in data set [1]) was 34.3 nM in each case. Turning to `CC(C)[C@H](NC(=O)CNC(=O)CN1CCN(CC(=O)O)CCN(CC(=O)O)CCN(CC(=O)O)CC1)C(=O)N[C@H](C)C(=O)N1CCC[C@H]1B(O)O` [compound 6521, DOTA-Gly-Val-D-Ala-boroPro], the IC50 at recombinant human FAP was 6.9 nM; in data set [1] (Z-Gly-Pro-AMC, 1.2 nM enzyme), 6.9 nM. With `N[C@@H](CCCCNC(=O)CN1CCN(CC(=O)O)CCN(CC(=O)O)CCN(CC(=O)O)CC1)C(=O)N1CCC[C@H]1B(O)O` [compound 6549, Lys(DOTA)-boroPro], the IC50 came out at 3.2 nM at recombinant human FAP and 2.9 nM in data set [1].

Take `C[C@@H](NC(=O)c1ccc(CNC(=O)CN2CCN(CC(=O)O)CCN(CC(=O)O)CCN(CC(=O)O)CC2)nc1)C(=O)N1CCC[C@H]1B(O)O` [compound 6556, DOTA-aminomethyl-Nic-D-Ala-boroPro]: the concentration for half-maximal inhibition (IC50) (at recombinant human FAP; in data set [1]) was 2.4 nM in each case. With `C[C@@H](NC(=O)c1ccc(NC(=O)CN2CCN(CC(=O)O)CCN(CC(=O)O)CCN(CC(=O)O)CC2)cc1)C(=O)N1CCC[C@H]1B(O)O` [compound 6572, DOTA-PABA-D-Ala-boroPro], the IC50 (on recombinant human FAP; in data set [1]) was 1.6 nM each time.

As for “DOTA[(Cu(II)]-Ser-D-Ala-boroPro [6509CU]”, the IC50 amounted to 128 nM at recombinant human FAP and 128 nM in data set [1] (Z-Gly-Pro-AMC, 1.2 nM enzyme).
